Laboratory results reported in US11944607B2, “Treatment of progressive neurodegenerative disease with ibudilast” (MediciNova, Inc., priority 2007, dated 2024).
Values joined by “and” are separate entries in the source; they are usually repeats but may differ in a detail not shown here. Equal values may be shown once.

Experiments:
[1] = test system: patients with multiple sclerosis; experiment: Phase II clinical trial: brain volume loss by cranial MRI; format: in vivo, human
Procedure: (§1) A Phase II placebo-controlled, randomized, double-blind study was conducted using ibudilast in patients with multiple sclerosis. During year 1, patients were treated with 0 mg tid (placebo), 10 mg tid or 20 mg tid of ibudilast; during year 2, patients on placebo were randomized to receive either 10 mg tid or 20 mg tid of ibudilast (patients on 10 mg tid or 20 mg tid during the first year of the study continued on that dose during the second year). A baseline MRI scan was taken two weeks prior to treatment. Brain volume changes were assessed on an annual basis with subsequent MRI scans. MRI scans were performed every two months of the 2-year period to assess changes in T1 and T2 lesions.

[2] = test system: patients with multiple sclerosis; experiment: Phase II placebo-controlled, randomized, double-blind study: relapse and disability (EDSS) outcomes; format: in vivo, human
Procedure: as §1

[3] = administered systemically; cited from earlier work
[4] = test system: rat animal model for Alzheimer's disease; experiment: Rat animal model for Alzheimer's disease; format: in vivo; conditions: present-tense example without data
activated microglia = conditions: dose-dependent; cited from earlier work
[5] = test system: patients with multiple sclerosis; experiment: Phase II clinical trial: double-blind MRI analysis of new lesion evolution to persistent black holes; format: in vivo, human; conditions: for Mean Proportion of Lesions Evolving to PBH / Median Proportion of Lesions Evolving to PBH: new lesions at month 2, PBH at month 10
Excerpt: The study is the result of randomized, double-blind, placebo-controlled analysis of year 1 MRI data with MN-166 administration. MRIs were collected bimonthly during the one year treatment period and were re-evaluated in a double-blind manner for this new analysis. Predefined endpoints for this evaluation were the rate of evolution of new lesions to persistent black holes and remyelinated lesions. The predefined statistical endpoints were at the rate of evolution of new lesions (NL) to persistent black holes (PBH) and remyelinated lesions (RL). New T1 gadolinium-enhancing or new T2 lesions were defined as NL in the first on-study Mill at month 2. […] Hypointense lesions at month 2 or 4 that were isointense at month 10 were RL. Relative Risk (RR) of NL evolution to PBH and RL per patient was analyzed using a general linear model with the error term from the Poisson distribution.

[6] = test system: animal model for progressive multiple sclerosis; experiment: Animal model for progressive multiple sclerosis; format: in vivo; conditions: progressive MS model; present-tense example without data
[7] = test system: animal model for Parkinson's disease; experiment: Animal model for Parkinson's disease; format: in vivo; conditions: present-tense example without data
[8] = 30 mg (N = 94), 2 Years, p = 0.0832 vs Placebo to Active
[9] = 60 mg (N = 98), 2 Years, p = 0.0516 vs Placebo to Active
[10] = 2 Year Active (pooling of 30 mg and 60 mg dose groups), 2 Years, p = 0.0264 vs Placebo to Active
[11] = Placebo to Active (to 30 mg/d), 2 Years (12 months placebo, 12 months drug)
[12] = Placebo to Active (to 60 mg/d), 2 Years (12 months placebo, 12 months drug)
[13] = Placebo to Active pooled (N = 100), 2 Years

With `CC(C)C(=O)c1c(C(C)C)nn2ccccc12` [ibudilast, 3-isobutyryl-2-isopropylpyrazolo[1,5-a]pyridine] the “Average loss of brain volume” value ([1]; 60 mg a day, 1-year treatment period, placebo 1.2%, p 0.0352) was 0.79%, the “Brain volume loss compared to the other treatment groups (cranial MRI)” value ([1]; 60 mg per day for 24 months, p=0.030) was “significantly less” and the “Brain volume loss compared to placebo (cranial MRI)” value ([1]; 60 mg per day, after 12 months, p=0.04) was “significant reduction”. The Brain volume loss ([1]; extended (at least about two years) administration) was “reduction”, the “Disability Progression, number of patients” value ([2]; 30 mg (N = 94), 1 Year) was 5 and the “Disability Progression, percent of patients” value ([2]; 30 mg (N = 94), 1 Year) was 5.3%. The “Disability Progression, number of patients” value [2, 8] was 10, the “Disability Progression, percent of patients” value [2, 8] was “(10.6%)” and the “Disability Progression, number of patients” value ([2]; 60 mg (N = 98), 1 Year) was 4. The “Disability Progression, percent of patients” value ([2]; 60 mg (N = 98), 1 Year) was 4.1%, the “Disability Progression, number of patients” value [2, 9] was 10 and the “Disability Progression, percent of patients” value [2, 9] was 10.2%. For the same molecule, the “Disability progression (worsened ≥1.0 on EDSS for 4 mo) (ITT)” value ([2]; 60 mg/day, year 1 (Table 1), p=0.334 vs pbo) was “pbo - 8%, 60 mg - 4%”, the Annualized relapse rate ([2]; 60 mg/day, year 1, ITT, p=0.1106 vs pbo) was “pbo - 0.9, 60 mg - 0.7 (ITT)” and the “IDSS (AUC of change from baseline EDSS)” value ([2]; 60 mg/day, year 1, ITT, p=0.1761 vs pbo) was “pbo: −0.05, 60 mg: −0.16 (ITT)”. The “IDSS (AUC of change from baseline EDSS)” value ([2]; 60 mg/day, year 1, completers, p=0.0365 vs pbo) was “pbo: −0.05, 60 mg: −0.24 (completers)”, the Annualized relapse rate ([2]; 60 mg/day, year 1, completers, p=0.0752 vs pbo) was “pbo - 0.8, 60 mg - 0.6 (completers)” and the “Time to first relapse (ITT), median” value ([2]; 60 mg/day, year 1, p=0.0438 vs pbo (pbo 244 days)) was “Median for 60 mg >1 year”. For the same molecule, the “EDSS (% worsened) (ITT)” value ([2]; 60 mg/day, year 1, p=0.1771 vs pbo) was “pbo - 30%, 60 mg - 21.4%”, the “% of subjects exacerbation-free for 1 year (ITT)” value ([2]; 60 mg/day, p=0.033 vs pbo) was “pbo - 41%, 60 mg - 56.1%” and the “Disability Progression, number of patients” value [2, 10] was 20/194. For the same molecule, the “Disability Progression, percent of patients” value [2, 10] was 10.4%, the “Likelihood of disability progression (≥1.0 point increase in EDSS for 4 consecutive months)” value ([2]; 24 months of drug vs 12 months of drug, p=0.026) was “less likely” and the “Disability Progression, number of patients” value [2, 11] was 8/51. For the same molecule, the “Disability Progression, percent of patients” value [2, 11] was “(15.7%)”, the “Disability Progression, number of patients” value [2, 12] was 13/49 and the “Disability Progression, percent of patients” value [2, 12] was “(26.5%)”. For the same molecule, the “Disability Progression, number of patients” value [2, 13] was 21/100, the “Disability Progression, percent of patients” value [2, 13] was 21% and the “Decrease in the rate of sustained disability progression” value ([2]; extended (at least about two years) administration, compared with patients treated for less than two years) was “about 50%”. For the same molecule, the “Prolongation of time to relapse, average” value ([2]; extended (at least about two years) administration, compared with untreated patients) was “about 130 days”, the Blood-brain barrier crossing [3] was “crosses the blood-brain barrier” and the Cognitive function [4] was “improvement”. For the same molecule, the “Production of IL-10, NGF, GDNF and NT-4” value (activated microglia) was “enhance”, the “Production of nitric oxide (NO), reactive oxygen species, IL-1beta, IL-6 and TNF” value (activated microglia) was “suppress” and the “# Patients w. New Lesions at Month 2” value ([5]; 30 mg/day (n=94)) was 64. For the same molecule, the “Mean Proportion of Lesions Evolving to PBH” value ([5]; 30 mg/day) was 0.20, the “Median Proportion of Lesions Evolving to PBH” value ([5]; 30 mg/day) was 0.08 and the “Relative Risk (for Evolution to PBH) vs. placebo” value ([5]; 30 mg/day, p=0.074, listed as MN-166) was 0.735 and 0.74. For the same molecule, the “# Patients w. New Lesions at Month 2” value ([5]; 60 mg/day (n=98)) was 56, the “Mean Proportion of Lesions Evolving to PBH” value ([5]; 60 mg/day) was 0.16 and the “Median Proportion of Lesions Evolving to PBH” value ([5]; 60 mg/day) was 0.04. The “Relative Risk (for Evolution to PBH) vs. placebo” value ([5]; 60 mg/day, p=0.011) was 0.63, the “Formation of black holes on MRI” value ([5]; first year of treatment, MS patients) was “decreased” and the “Conversion of acute lesions to persistent black holes” value ([5]; overall benefit statement for extended administration) was “reduction”. For the same molecule, the Functional outcomes [6] was “improvement” and the Locomotion [7] was “improvement”.
